Reference: patent US6057359A, “Spontaneously dispersible concentrates comprising esters of baccatin-III compounds having antitumor and antiviral activity” (Marigen S.A., priority 1997, dated 2000)

Legend:
[1] = test system: Py6 cells (Virus transformed 3T3 mouse-fibroblasts); test: Test of cell toxicity / cytotoxicity of MARIGENOL concentrates on Py6 cells (plaque assay, serial dilution); type: cell-based; conditions: for in dilution active up to 1: (microemulsion ME 1:100): dilution of ME 1:100, given in Mio.
Method: A biological assay system using microtiter plates and serial dilutions has been developed. Batches of 10^4 tumour cells per ml were set up in culture medium RPMI 1640 and inactivated with 10% of fetal calf serum (GIBCO); they are spread at a density low enough to enable them to grow during the assay, in non-confluent monolayers. Samples are added after 6 to 24 hours, with 100 μl per row, to which 100 μl of medium are added in the first well. Half of this mixture is withdrawn, transferred into the next well and again treated with 100 μl of medium, etc.
[…] They are then stained and fixed using 0.1% crystal violet (Fluka, Buchs) in a solution of 70% of methanol, 1% of formaldehyde and 29% of water. The samples are evaluated under the microscope, magnification 300×. The greatest cytotoxic dilution is determined. The samples can also be evaluated quantitatively by means of scanning and absorption measurement in a spectrophotometer.
N.B.: On the subject of the eternalized Py6-cells cf.: "Biochemistry", Coordinating Editor Geoffrey L. Zubay, Addison-Wesley Publishing Company, 1983, p.1079.

LEUKEMIA K 562 = test: Vitality/proliferation test (Tritium), leukemia K 562; type: cell-based, human; conditions: controls 50'037 cpm
Source text: (§1) 4.0 Comparative assays with human tumor cell lines
(§2) VITALITY TEST/1%-MARIGENOL-CONCENTRATE
(§3) 1 × 10^4 cells per well
(§4) Proliferation test (Tritium: 1 μCi/well H^+)

LEUKEMIA DAUDI-LINE = test: Vitality/proliferation test (Tritium), leukemia Daudi-line; type: cell-based, human; conditions: controls 23'090 cpm
Source text: as §1, §2, §3, §4

[2] = test system: Herpes-Virus (Herpes Simplex, HSV); test: Antiviral/virucidal efficacy against HSV, plaque reduction in VERO cells; type: cell-based; conditions: compared to simple medium, 2880 min
Method: (§5) The antiviral/virucidal efficacy against HSV of an aqueous microemulsion prepared with appropriate MARIGENOL®-concentrates was assessed on a confluent monolayer culture of VERO cells (i.e. "African green monkey kidney cells"). The host cells were pretreated during 3 h at 4° C. with an inventive microemulsion or with culture medium alone and then infected with HSV at a constant dose of 10^4 plaque forming units (PFU). After virus absorption during 1 h, and subsequent addition of 2% methylcellulose in order to limit virus spreading, cells were cultured in MEM medium+2% foetal calf serum for 48 h, then fixed and stained with 1% crystal violet in methanol. The reduction of viral titre was expressed as percent reduction of plaques of lysis observed in pre-treated cells, compared to controls.
Infection was also detected by IFA at 24 h after inoculation, using a Mab specific for a glycoprotein common to HSV-1/HSV-2 (clone FQ 12, Argene Biosoft, BIOLINE, Torino).
The following test substances were assessed as concentrates in aqueous dilution (starting with a microemulsion 1:100): […]

VERO cells = test: Cell lysis in VERO cell layers; type: cell-based, African green monkey; conditions: dilution 1:1'000; plaque reduction table
Method: as §5

[3] = test system: HIV isolates from patients (strains 21/4 and 4/5); test: Effect on HIV infectivity, residual HIV titre (direct antiviral efficacy); type: cell-based
Method: Aliquote amounts of two HIV isolates from patients (strains 21/4 and 4/5) resuspended in complete RPMI medium at a titre of 300 CCID50 /ml were incubated during 3 hours, +4° C. with MARIGENOL®-concentrate, in the form of an aqueous microemulsion, at concentrations ranging from 10^-2 to 10^-5 in complete medium, as well as with ("empty") carrier concentrate and with medium alone as controls.
After pre-incubation, residual HIV titre was assessed by the CCID50 method (Cell-culture infecting dose 50%). Briefly, serial twofold dilutions were prepared from each of the six virus suspensions, and 200 μl of each dilution were incubated for 90 minutes with MT-4 cell pellets prepared as stated before (see 7.1). At the end of incubation, pellets were brought to initial cell concentration by adding appropriate amounts of complete RPMI medium to each tube, whose content was then distributed into 8 wells of a flat-bottom microtitre plate in 200 μl volumes, each vertical row coresponding to a dilution. After 5 days of incubation, cell viability was assessed by the MTT test as stated above, and the HIV titre was expressed as the reciprocal of that dilution which infects 4 out of 8 wells (50%) in a row. A well was considered infected when its O.D. readout at 550 nm was lower than the average readout of 8 control wells minus 2.8 times the standard error of the mean (lower 95% confidence limit).

Molecule | in dilution active up to 1: (calculated on active substance content, A.S.) ([1]; 24 h exposure) | in dilution active up to 1: (calculated on active substance content, A.S.) ([1]; 48 h exposure) | in dilution active up to 1: (calculated on active substance content, A.S.) ([1]; 72 h exposure) | Proliferation test % (LEUKEMIA K 562; 10^-3) | Proliferation test cpm (LEUKEMIA K 562; 10^-3) | Proliferation test % (LEUKEMIA K 562; 10^-4) | Proliferation test cpm (LEUKEMIA K 562; 10^-4) | Proliferation test % (LEUKEMIA K 562; 10^-5) | Proliferation test % (LEUKEMIA DAUDI-LINE; 10^-3) | Proliferation test cpm (LEUKEMIA DAUDI-LINE; 10^-3) | Proliferation test % (LEUKEMIA DAUDI-LINE; 10^-4) | Proliferation test cpm (LEUKEMIA DAUDI-LINE; 10^-4) | Proliferation test % (LEUKEMIA DAUDI-LINE; 10^-5) | other results
C=CCCCCCCCCC(=O)O[C@H]1C[C@@]2(O)[C@@H](OC(=O)c3ccccc3)[C@@H]3[C@]4(OC(C)=O)CO[C@@H]4C[C@H](OC(=O)CCCCCCCCC=C)[C@@]3(C)C(=O)[C@H](OC(C)=O)C(=C1C)C2(C)C [BACCATIN III-DI-UNDECENOATE, 7,13-Baccatin-III-diundecenoate] | 12.8 Mio. | 25.6 Mio. | 100 Mio. | 0.9% | 466 cpm | 1.3% | 665 cpm | 9.5% | 1.2% | 293 cpm | 2.8% | 653 cpm | 41.7% | in dilution active up to 1: (microemulsion ME 1:100) ([1]; 72 h exposure): 1 Mio.
CCCCCCCCCCCCCCCC(=O)Oc1ccc(-c2oc3cc(OC(=O)CCCCCCCCCCCCCCC)cc(OC(=O)CCCCCCCCCCCCCCC)c3c(=O)c2OC(=O)CCCCCCCCCCCCCCC)c(OC(=O)CCCCCCCCCCCCCCC)c1 [MOREN-PENTA-PALMITATE] | 6.4 Mio. | 51.2 Mio. | 51.2 Mio. | – | – | – | – | – | – | – | – | – | – | –
7-Baccatin III-all trans-retinoate | 12.8 Mio. | 25.6 Mio. | 25.6 Mio. | 0.8% | 415 cpm | 1.6% | 822 cpm | 15.0% | 1.1% | 256 cpm | 1.7% | 412 cpm | 52.7% | –
CCCCCCCCCCCC(=O)Oc1ccc(-c2oc3cc(OC(=O)CCCCCCCCCCC)cc(OC(=O)CCCCCCCCCCC)c3c(=O)c2OC(=O)CCCCCCCCCCC)c(OC(=O)CCCCCCCCCCC)c1 [MORIN-PENTA-LAURATE] | 12.8 Mio. | 100 Mio. | 100 Mio. | – | – | – | – | – | – | – | – | – | – | in dilution active up to 1: (microemulsion ME 1:100) ([1]; 48 h exposure): 1 Mio.; in dilution active up to 1: (microemulsion ME 1:100) ([1]; 72 h exposure): 1 Mio.
CCCCCCCCCCCC(=O)O[C@H]1C[C@@]2(O)[C@@H](OC(=O)c3ccccc3)[C@@H]3[C@]4(OC(C)=O)CO[C@@H]4C[C@H](OC(=O)CCCCCCCCCCC)[C@@]3(C)C(=O)[C@H](OC(C)=O)C(=C1C)C2(C)C [BACCATIN III-DI-LAURATE, 7,13-Dilauroylbaccatin-III] | 12.8 Mio. | 12.8 Mio. | 25.6 Mio. | 1.1% | 585 cpm | 1.3% | 651 cpm | 6.1% | 1.4% | 346 cpm | 1.9% | 455 cpm | 38.3% | –
CCCCCCCCCCCCCCCCCCCC(=O)O[C@H]1CC[C@@]2(C)C(=CC[C@H]3[C@@H]4CC[C@H]([C@H](C)CC[C@@H](CC)C(C)C)[C@@]4(C)CC[C@@H]32)C1 [β-Sitosteryl-Arachidate, 3β-Stigmast-5-en-3-arachidate] | – | – | – | – | – | – | – | – | – | – | – | – | – | Percent reduction of plaques in VERO cell monolayers ([2]; dilution 1:10'000): 76%; Percent reduction of plaques in VERO cell monolayers ([2]; dilution 1:100'000): 5%; Cell-Lysis (VERO cells): Cell-Lysis
C=CCCCCCCCCC(=O)O[C@H]1CC[C@@]2(C)C(=CC=C3[C@@H]4CC[C@H]([C@H](C)/C=C/[C@H](C)C(C)C)[C@@]4(C)CC[C@@H]32)C1 [ERGOSTERYL-10-UNDECENOATE, (3β, 22E)-Ergosta-5,7,22-triene-3-ol-10-undecenoate] | – | – | – | – | – | – | – | – | – | – | – | – | – | RESIDUAL HIV TITRE (CCID50) ([3]; concentrate 1'000 ppm, active substance 10 ppm, mean titre of 2 strains, 3 h, +4° C.): 25 CCID50; inhibition of HIV infectivity ([3]; pre-treatment with 1%-concentrate): somewhat less potent inhibition
CCCCCCCCCCCC(=O)Oc1cc(OC(=O)CCCCCCCCCCC)c2c(=O)cc(-c3ccccc3)oc2c1 [CHRYSIN-DI-LAURATE] | 12.8 Mio. | 51.2 Mio. | 100 Mio. | – | – | – | – | – | – | – | – | – | – | in dilution active up to 1: (microemulsion ME 1:100) ([1]; 72 h exposure): 1 Mio.
CCCCCCCCCCCCCCCC(=O)Oc1cc(OC(=O)CCCCCCCCCCCCCCC)c2c(=O)cc(-c3ccccc3)oc2c1 [CHRYSIN-DI-PALMITATE] | 12.8 Mio. | 51.2 Mio. | 51.2 Mio. | – | – | – | – | – | – | – | – | – | – | –
CCCCCCCCCCCC(=O)O[C@H]1CC[C@@]2(C)C(=CC=C3[C@@H]4CC[C@H]([C@H](C)/C=C/[C@H](C)C(C)C)[C@@]4(C)CC[C@@H]32)C1 [C12:0 -ERGO ESTER (ERGOST. LAURATE), (3β, 22E)-Ergosta-5,7,22-triene-3-ol-laurate] | – | – | – | – | – | – | – | – | – | – | – | – | – | Percent reduction of plaques in VERO cell monolayers ([2]; dilution 1:10'000): 62%; Percent reduction of plaques in VERO cell monolayers ([2]; dilution 1:100'000): 0%; Cell-Lysis (VERO cells): Cell-Lysis
CC(=O)O[C@H]1C(=O)[C@@]2(C)[C@H]([C@H](OC(=O)c3ccccc3)[C@]3(O)C[C@H](OC(=O)[C@H](O)[C@@H](NC(=O)c4ccccc4)c4ccccc4)C(C)=C1C3(C)C)[C@]1(OC(C)=O)CO[C@@H]1C[C@@H]2O [TAXOL-A.S., Taxol (Paclitaxel), reference compound] | 6.4 Mio. | 25.6 Mio. | 25.6 Mio. | 1.3% | 679 cpm | 1.6% | 830 cpm | 7.1% | 2.3% | 552 cpm | 2.9% | 672 cpm | 69.6% | –
